Measurements: ChEMBL document CHEMBL1201862, “PubChem BioAssay data set” (2004)
Activity calls are given as the source filed them. Rule as the data show it, for most assays here: actives have a measured IC50 and inactives only a lower limit.

Experiments:
Coagulation factor XII = target: T1, Coagulation factor XII (Homo sapiens, UniProt P00748); experiment: FXIIa inhibitor potency, concentration-response, biochemical (AID 716); format: functional
T1 sequence (P00748 whole entry): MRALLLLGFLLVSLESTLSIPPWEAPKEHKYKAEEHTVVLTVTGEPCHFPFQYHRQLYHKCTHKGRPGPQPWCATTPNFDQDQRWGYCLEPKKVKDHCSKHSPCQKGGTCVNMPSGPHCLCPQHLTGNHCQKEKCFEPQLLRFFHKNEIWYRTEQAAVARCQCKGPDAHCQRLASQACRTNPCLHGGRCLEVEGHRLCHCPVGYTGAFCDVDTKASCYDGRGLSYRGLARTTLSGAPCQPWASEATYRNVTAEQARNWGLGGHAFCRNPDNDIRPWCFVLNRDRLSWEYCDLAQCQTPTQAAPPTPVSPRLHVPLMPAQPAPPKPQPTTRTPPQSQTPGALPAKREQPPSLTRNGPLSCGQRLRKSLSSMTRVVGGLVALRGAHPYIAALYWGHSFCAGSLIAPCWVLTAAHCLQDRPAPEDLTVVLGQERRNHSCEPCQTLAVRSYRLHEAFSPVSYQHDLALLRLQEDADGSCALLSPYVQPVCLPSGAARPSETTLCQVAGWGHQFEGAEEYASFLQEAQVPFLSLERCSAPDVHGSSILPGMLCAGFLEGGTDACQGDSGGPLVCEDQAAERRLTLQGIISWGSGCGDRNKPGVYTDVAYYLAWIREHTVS

[1] = target: NACHT, LRR and PYD domains-containing protein 1 (Homo sapiens, UniProt Q9C000); experiment: NALP1 inhibitors in yeast, dose response, luminescent (AID 488860); format: functional
Saccharomyces cerevisiae = experiment: NALP1 inhibitor project selectivity study, Caspase-1/ASC signal blockade IC50 in S. cerevisiae (AID 488863); format: functional, organism-based
[2] = target: T2, Alkaline phosphatase, tissue-nonspecific isozyme (Homo sapiens, UniProt P05186); experiment: human TNAP enzyme inhibitors, SAR follow-up, biochemical, luminescent, dose response (AID 1056)
T2 sequence (P05186 whole entry): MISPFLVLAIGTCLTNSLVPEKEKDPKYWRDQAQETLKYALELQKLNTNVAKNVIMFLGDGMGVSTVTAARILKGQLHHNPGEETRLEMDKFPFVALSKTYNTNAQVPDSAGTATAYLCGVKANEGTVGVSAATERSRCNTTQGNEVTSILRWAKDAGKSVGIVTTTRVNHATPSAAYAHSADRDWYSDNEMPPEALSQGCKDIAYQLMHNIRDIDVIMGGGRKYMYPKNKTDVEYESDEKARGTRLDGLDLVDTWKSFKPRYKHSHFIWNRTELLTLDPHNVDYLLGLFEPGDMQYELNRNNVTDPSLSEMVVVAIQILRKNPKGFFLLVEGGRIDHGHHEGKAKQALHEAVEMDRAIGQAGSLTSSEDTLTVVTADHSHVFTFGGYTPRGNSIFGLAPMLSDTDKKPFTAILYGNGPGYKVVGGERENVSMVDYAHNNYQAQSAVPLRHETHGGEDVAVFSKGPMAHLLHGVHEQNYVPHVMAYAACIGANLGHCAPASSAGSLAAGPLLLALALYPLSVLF

[3] = target: Alkaline phosphatase, placental type (Homo sapiens, UniProt P05187); experiment: PLAP enzyme inhibitors, confirmation, biochemical, luminescence (AID 1512); format: functional
[4] = target: T3, Tyrosine-protein phosphatase non-receptor type 7 (Homo sapiens, UniProt P35236); experiment: redox-dependent HePTP inhibition, mechanism study, biochemical, fluorescence (AID 2068); format: functional
T3 sequence (P35236 whole entry): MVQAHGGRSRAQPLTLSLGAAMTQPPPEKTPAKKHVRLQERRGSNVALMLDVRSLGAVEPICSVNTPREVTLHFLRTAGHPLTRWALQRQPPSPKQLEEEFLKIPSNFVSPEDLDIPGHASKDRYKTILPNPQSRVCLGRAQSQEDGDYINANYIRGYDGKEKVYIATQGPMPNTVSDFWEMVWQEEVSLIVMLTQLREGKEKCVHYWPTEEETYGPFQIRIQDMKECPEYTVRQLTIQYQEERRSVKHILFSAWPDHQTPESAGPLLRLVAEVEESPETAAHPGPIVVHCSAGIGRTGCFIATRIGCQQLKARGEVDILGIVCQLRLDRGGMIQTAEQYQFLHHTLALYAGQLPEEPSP

[5] = target: Dual specificity protein phosphatase 6 (Rattus norvegicus, UniProt Q64346); format: functional;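 also: confirmatory in vitro dose-response testing of MKP-3 inhibition; recombinant His-tagged MKP-3 made in E. coli BL21 with OMFP substrate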
[6] = target: T4, Dual specificity protein phosphatase 3 (Homo sapiens, UniProt P51452); experiment: SAR VHR1 Fluorescent Assay for In Vitro dose response studies. [Related pubchem assays (depositor defined):AID1654, AID1661, AID1878, AID1992, AID2004, AID2070, AID2085]; format: functional
[7] = target: T4, Dual specificity protein phosphatase 3; experiment: SAR VHR1 Fluorescent Assay for In Vitro dose response studies Set 2. [Related pubchem assays (depositor defined):AID1654, AID1661, AID1878]; format: functional
[8] = target: T4, Dual specificity protein phosphatase 3; experiment: SAR VHR1 absorbance Assay for In Vitro dose response studies. [Related pubchem assays (depositor defined):AID1654, AID1661, AID1878, AID1992, AID2004]
[9] = target: G-protein coupled receptor 55 (Homo sapiens, UniProt Q9Y2T6); experiment: GPR55 agonists via beta-arrestin recruitment, primary screen, imaging, U2OS cells, beta-arrestin-GFP redistribution (AID 1961); format: functional
Sequence of G-protein coupled receptor 55 (Q9Y2T6 whole entry): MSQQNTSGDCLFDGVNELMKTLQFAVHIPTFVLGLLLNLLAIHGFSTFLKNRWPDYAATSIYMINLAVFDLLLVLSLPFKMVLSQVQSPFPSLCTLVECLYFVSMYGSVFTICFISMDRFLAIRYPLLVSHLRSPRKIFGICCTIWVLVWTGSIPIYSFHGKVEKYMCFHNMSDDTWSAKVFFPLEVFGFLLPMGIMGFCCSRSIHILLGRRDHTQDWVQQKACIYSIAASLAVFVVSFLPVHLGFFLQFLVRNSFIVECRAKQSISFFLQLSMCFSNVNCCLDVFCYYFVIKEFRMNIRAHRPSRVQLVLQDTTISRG

T4 sequence (P51452 whole entry): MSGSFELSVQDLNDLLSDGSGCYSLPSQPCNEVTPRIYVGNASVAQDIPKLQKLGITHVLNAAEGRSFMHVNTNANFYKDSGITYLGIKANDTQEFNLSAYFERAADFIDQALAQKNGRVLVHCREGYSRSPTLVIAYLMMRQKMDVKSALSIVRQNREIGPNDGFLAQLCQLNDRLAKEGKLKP
Sequence of Dual specificity protein phosphatase 6 (Q64346 whole entry): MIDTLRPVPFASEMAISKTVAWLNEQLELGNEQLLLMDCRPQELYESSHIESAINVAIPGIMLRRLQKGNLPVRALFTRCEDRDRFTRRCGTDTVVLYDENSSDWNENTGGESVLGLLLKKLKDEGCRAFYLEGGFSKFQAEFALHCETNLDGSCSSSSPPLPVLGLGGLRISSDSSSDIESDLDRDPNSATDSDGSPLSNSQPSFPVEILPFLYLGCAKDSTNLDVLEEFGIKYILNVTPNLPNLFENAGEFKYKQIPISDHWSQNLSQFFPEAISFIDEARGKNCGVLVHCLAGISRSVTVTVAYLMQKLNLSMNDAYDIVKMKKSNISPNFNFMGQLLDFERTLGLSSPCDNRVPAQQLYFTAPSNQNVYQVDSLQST
Sequence of Alkaline phosphatase, placental type (P05187 whole entry): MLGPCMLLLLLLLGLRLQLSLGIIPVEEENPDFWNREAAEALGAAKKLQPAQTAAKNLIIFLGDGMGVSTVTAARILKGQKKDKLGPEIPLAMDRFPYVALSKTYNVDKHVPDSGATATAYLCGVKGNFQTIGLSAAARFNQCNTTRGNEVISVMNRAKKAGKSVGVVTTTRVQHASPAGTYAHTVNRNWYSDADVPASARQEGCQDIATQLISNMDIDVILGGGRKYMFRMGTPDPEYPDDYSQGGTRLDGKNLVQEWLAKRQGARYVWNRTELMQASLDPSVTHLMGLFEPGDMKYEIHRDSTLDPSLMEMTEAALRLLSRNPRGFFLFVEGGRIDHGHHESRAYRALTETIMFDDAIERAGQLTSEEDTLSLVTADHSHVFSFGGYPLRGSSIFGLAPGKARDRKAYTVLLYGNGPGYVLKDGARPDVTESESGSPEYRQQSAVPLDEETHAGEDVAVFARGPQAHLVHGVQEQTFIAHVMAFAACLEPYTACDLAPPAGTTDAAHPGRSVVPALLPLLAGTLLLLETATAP
Sequence of NACHT, LRR and PYD domains-containing protein 1 (Q9C000 1-1212 limits assumed): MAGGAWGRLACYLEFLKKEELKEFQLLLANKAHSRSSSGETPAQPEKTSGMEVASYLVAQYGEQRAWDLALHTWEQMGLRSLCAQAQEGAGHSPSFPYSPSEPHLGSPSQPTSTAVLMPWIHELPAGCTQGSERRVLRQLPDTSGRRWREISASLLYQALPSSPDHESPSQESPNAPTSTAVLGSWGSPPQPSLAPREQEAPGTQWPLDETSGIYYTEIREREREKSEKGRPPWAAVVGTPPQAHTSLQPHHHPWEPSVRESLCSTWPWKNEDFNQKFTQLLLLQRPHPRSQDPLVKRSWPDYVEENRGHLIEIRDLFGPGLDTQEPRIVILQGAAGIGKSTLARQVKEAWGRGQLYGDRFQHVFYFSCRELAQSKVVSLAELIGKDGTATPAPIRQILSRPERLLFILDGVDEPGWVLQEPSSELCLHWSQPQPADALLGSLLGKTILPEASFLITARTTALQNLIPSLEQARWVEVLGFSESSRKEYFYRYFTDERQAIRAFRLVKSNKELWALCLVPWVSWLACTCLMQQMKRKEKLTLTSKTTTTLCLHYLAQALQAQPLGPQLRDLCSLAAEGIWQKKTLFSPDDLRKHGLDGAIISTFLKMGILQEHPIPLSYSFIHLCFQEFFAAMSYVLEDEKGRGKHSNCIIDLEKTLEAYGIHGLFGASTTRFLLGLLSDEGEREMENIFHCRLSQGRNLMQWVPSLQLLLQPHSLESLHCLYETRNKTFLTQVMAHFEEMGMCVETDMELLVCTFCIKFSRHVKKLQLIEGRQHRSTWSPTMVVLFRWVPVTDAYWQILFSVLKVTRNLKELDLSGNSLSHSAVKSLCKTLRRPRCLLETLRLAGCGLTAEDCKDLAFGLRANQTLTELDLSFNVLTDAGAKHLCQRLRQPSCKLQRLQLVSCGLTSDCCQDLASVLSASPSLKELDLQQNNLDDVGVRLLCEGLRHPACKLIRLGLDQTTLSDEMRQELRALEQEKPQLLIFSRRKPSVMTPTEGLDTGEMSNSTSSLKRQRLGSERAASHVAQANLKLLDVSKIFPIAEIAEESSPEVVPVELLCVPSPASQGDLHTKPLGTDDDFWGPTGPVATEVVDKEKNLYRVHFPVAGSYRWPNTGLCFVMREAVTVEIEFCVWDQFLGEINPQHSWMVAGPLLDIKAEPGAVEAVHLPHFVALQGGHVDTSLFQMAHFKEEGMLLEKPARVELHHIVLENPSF
Sequence of NACHT, LRR and PYD domains-containing protein 1 (Q9C000 1213-1473 limits assumed): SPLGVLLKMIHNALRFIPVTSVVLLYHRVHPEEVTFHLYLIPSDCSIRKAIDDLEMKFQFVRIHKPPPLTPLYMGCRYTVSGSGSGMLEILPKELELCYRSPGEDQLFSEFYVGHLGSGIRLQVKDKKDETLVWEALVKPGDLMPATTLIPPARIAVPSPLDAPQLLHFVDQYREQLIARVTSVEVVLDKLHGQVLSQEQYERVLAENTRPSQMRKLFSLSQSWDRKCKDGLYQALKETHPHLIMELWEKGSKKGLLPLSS

Which IC50 (Coagulation factor XII) does the source give for `CC(C)CC(c1nnnn1Cc1ccco1)N1CCN(C2CCCC2)CC1` (stereo unspecified) here?
Its IC50 is > 50 µM (inactive).

Which results are given for `COC(=O)c1sccc1NC(=O)c1csc(C)c1`?
IC50 [1]: 15.9 µM (active); IC50 (Saccharomyces cerevisiae): 60.4 µM (active)

With `O=C(CSc1nnc(-c2ccco2)[nH]1)c1ccc(O)c(O)c1` as the compound, how does the IC50 [2] read?
The IC50 was 21.7 µM (active).

And the IC50 [3]?
Its IC50 is 12.2 µM (active).

Which results are given for `CN(C)S(=O)(=O)c1cc(C(=O)NC2CCSc3ccccc32)ccc1Cl` (stereo unspecified)?
IC50 [4]: > 100 µM (inactive); IC50 [5]: > 100 µM (inactive); IC50 [6]: > 100 µM (inactive); IC50 [7]: > 100 µM (inactive); IC50 [8]: > 100 µM (inactive)

`O=C(O)c1cccc(CSc2nnc(-c3ccc(Cl)cc3Cl)[nH]2)c1` was tested. Which EC50 [9] did it give?
The EC50 was 6.41 µM (active).
